# Experimental data: US20260014147A1, “STAT6 DEGRADERS” (Gilead Sciences, Inc., priority 2024, published 2026)
# Tests used:
# [1] = test system: Eotaxin-3 (CCL26) release in human whole blood stimulated with IL-4; experiment: Human Whole Blood Eotaxin-3 Assay (IL-4 stimulated, inhibition of eotaxin-3 release); format: cell-based; conditions: Homo sapiens, EC50 provided for test compounds with >80% Emax, geometric mean across assay runs and batches
# Procedure: This was a human whole blood assay using recombinant human Interleukin 4 to stimulate the blood and measuring the ability of the test compounds to inhibit eotaxin-3 release. The biological activities of the test compounds have been tested in human whole blood stimulated with IL-4 measuring Eotaxin-3 release. The test compounds were added to 384 well clear flat-bottom plate in a 4-fold serial dilution in triplicates using a liquid handler. Human whole blood stabilized in lithium-heparin tubes was added in a volume of 65 uL per well, resulting in a final DMSO concentration of 0.5%. The plate is incubated for 2 h at 37° C. under 5% CO2/95% air. Subsequently, 5 μL of recombinant human IL-4 (R&D Systems, cat #204-ILB) was added to the wells to a final concentration of 400 pM. The plate was incubated for 48 h at 37° C. under 5% CO2/95% air. The plate was spun down for 10 minutes at 500×g and 20 uL supernatant was harvested and transferred to a 384 well v-bottom plate using a liquid handler and stored at −20° C. until further analysis. 10 uL supernatant was used to measure the level of Eotaxin-3 (CCL26) using Human Eotaxin-3 MSD kit from Mesocsale (Cat #K251UEK-4). The assay was performed according to the manufacture instructions.
# The data from the human whole blood eotaxin-3 assay is shown below for Examples 2q11, 2110, and 2c49 (where the effect in % is plotted against the test concentration in M on a log-scale).
# [2] = molecular target: T1, STAT6 (endogenous, HiBiT-tagged) in HeLa LgBiT clone 4.14 cells (Homo sapiens, UniProt P42226); experiment: STAT6 Degrader Assay (HiBiT based, HeLa LgBiT clone 4.14 cells, luminescence, DC50); format: cell-based; conditions: geometric mean; for DC50: DC50 provided for test compounds with >80% Emax, read-out: STAT6 degradation DC50; for Emax: Emax provided for test compounds with <80% Emax (and 2c15), read-out: STAT6 degradation Emax
# T1 construct: These cells express endogenous STAT6; host or cells: HeLa LgBiT clone 4.14
# T1 sequence (P42226 1-847): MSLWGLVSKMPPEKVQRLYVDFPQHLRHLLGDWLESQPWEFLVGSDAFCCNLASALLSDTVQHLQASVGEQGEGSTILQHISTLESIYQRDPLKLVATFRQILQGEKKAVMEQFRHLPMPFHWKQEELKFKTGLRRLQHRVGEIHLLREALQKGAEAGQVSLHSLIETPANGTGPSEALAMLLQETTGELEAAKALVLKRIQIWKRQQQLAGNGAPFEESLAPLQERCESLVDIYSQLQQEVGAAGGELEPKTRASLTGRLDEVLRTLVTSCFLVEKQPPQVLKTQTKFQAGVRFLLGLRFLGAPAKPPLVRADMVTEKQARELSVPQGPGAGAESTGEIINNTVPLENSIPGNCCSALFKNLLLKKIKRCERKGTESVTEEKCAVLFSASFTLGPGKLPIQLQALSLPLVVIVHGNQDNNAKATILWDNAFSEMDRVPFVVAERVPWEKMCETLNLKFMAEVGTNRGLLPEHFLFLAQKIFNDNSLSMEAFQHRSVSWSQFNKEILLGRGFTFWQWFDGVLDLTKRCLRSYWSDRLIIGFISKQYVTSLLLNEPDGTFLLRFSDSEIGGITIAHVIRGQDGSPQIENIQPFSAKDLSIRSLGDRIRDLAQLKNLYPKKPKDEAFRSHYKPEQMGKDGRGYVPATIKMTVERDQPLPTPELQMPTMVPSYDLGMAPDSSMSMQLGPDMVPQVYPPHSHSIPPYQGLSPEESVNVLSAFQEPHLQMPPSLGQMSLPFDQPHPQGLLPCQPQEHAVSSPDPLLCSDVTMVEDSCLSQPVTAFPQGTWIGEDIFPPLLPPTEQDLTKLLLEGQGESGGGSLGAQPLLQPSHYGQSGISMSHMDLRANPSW
# In short: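 HeLa LgBiT clone 4.14 cells carry CRISPR-inserted HiBiT on endogenous STAT6; 5000 cells/well were exposed to compound for 4-24 h at 37 °C, 5% CO2. Nano-Glo substrate added for 0.5 h; luminescence reflects remaining STAT6, with terfenadine ([…]) wells defining 100% degradation.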
SMILES,EC50 [1],DC50 [2],Emax [2]
"CNc1ccc(-c2ccnc3c2cc([C@H](C)N2CC=C(c4c(C)cc(C(=O)N5CCC(CN6CCN(c7ncc(NC8CCC(=O)NC8=O)cc7F)C[C@@H]6C)CC5)cc4F)CC2)n3C)cn1 (stereo partly drawn) [Example 2c45, 3-((5-fluoro-6-((S)-4-((1-(3-fluoro-5-methyl-4-(1-((S)-1-(1-methyl-4-(6-(methyl-amino)pyridin-3-yl)-1H-pyrrolo[2,3-b]pyridin-2-yl)ethyl)-1,2,3,6-tetrahydropyridin-4-yl)benzoyl)-piperidin-4-yl)methyl)-3-methylpiperazin-1-yl)pyridin-3-yl)amino)piperidine-2,6-dione]",104 nM,21.3 nM,–
"CNc1ccc(-c2ccnc3c2cc([C@H](C)N2CC=C(c4c(C)cc(C(=O)N5CCC(CN6CCN(c7ccc(NC8CCC(=O)NC8=O)c(OC)c7)CC6)CC5)cc4F)CC2)n3C)cn1 (stereo partly drawn) [Example 2c46, 3-((4-(4-((1-(3-fluoro-5-methyl-4-(1-((S)-1-(1-methyl-4-(6-(methylamino)pyridin-3-yl)-1H-pyrrolo[2,3-b]pyridin-2-yl)ethyl)-1,2,3,6-tetrahydropyridin-4-yl)benzoyl)piperidin-4-yl)methyl)piperazin-1-yl)-2-methoxyphenyl)amino)piperidine-2,6-dione]",58.4 nM,21.4 nM,–
"COCc1nc2cc(-c3ccnc4c3cc([C@H](C)N3CCC(c5ccc(C(=O)N6CCC(CN7CCN(c8ccc(NC9CCC(=O)NC9=O)cc8F)C[C@H]7C)CC6)cc5)CC3)n4C)ccc2[nH]1 (stereo partly drawn) [Example 2f1, 3-((3-fluoro-4-((R)-4-((1-(4-(1-((S)-1-(4-(2-(methoxymethyl)-1H-benzo[d]imidazol-5-yl)-1-methyl-1H-pyrrolo[2,3-b]pyridin-2-yl)ethyl)piperidin-4-yl)benzoyl)piperidin-4-yl)methyl)-3-methylpiperazin-1-yl)phenyl)amino)piperidine-2,6-dione]",25 nM,3.4 nM,–
"C[C@@H]1CN(c2ccc(NC3CCC(=O)NC3=O)cc2F)CCN1CC1CCN(C(=O)c2ccc(C3CCN([C@@H](C)c4cc5c(-c6ccc(N)nc6)ccnc5n4C)CC3)cc2)CC1 (stereo partly drawn) [Example 2f2, 3-((4-((R)-4-((1-(4-(1-((S)-1-(4-(6-aminopyridin-3-yl)-1-methyl-1H-pyrrolo[2,3-b]pyridin-2-yl)ethyl)piperidin-4-yl)benzoyl)piperidin-4-yl)methyl)-3-methylpiperazin-1-yl)-3-fluorophenyl)amino)-piperidine-2,6-dione]",37 nM,6.8 nM,–
"C[C@@H](c1cc2c(-c3ccc(N)nc3)ccnc2n1C)N1CCC(c2ccc(C(=O)N3CCC(CN4CCC(c5ccc(NC6CCC(=O)NC6=O)cc5F)C(F)(F)C4)CC3)cc2)CC1 (stereo partly drawn) [Example 2m2, 3-((4-(1-((1-(4-(1-((S)-1-(4-(6-aminopyridin-3-yl)-1-methyl-1H-pyrrolo[2,3-b]pyridin-2-yl)-ethyl)piperidin-4-yl)benzoyl)piperidin-4-yl)methyl)-3,3-difluoropiperidin-4-yl)-3-fluorophenyl)amino)-piperidine-2,6-dione]",118 nM,–,60 to 70%
"C[C@@H](c1cc2c(-c3ccc(N)nc3)ccnc2n1C)N1CCC(c2ccc(C(=O)N3CCC(CN4CCN(c5ccc(NC6CCC(=O)NC6=O)c(F)n5)CC4)CC3)cc2)CC1 (stereo partly drawn) [Example 2n9, 3-((6-(4-((1-(4-(1-((S)-1-(4-(6-aminopyridin-3-yl)-1-methyl-1H-pyrrolo[2,3-b]pyridin-2-yl)-ethyl)-piperidin-4-yl)benzoyl)piperidin-4-yl)methyl)piperazin-1-yl)-2-fluoropyridin-3-yl)amino)piperidine-2,6-dione]",141 nM,–,70 to 80%
"C[C@@H](c1cc2c(-c3ccc(N)nc3)ccnc2n1C)N1CCC(c2ccc(C(=O)N3CCC(CN4CCN(c5ncc(NC6CCC(=O)NC6=O)cc5F)CC4)CC3)cc2)CC1 (stereo partly drawn) [Example 2n10, 3-((6-(4-((1-(4-(1-((S)-1-(4-(6-aminopyridin-3-yl)-1-methyl-1H-pyrrolo[2,3-b]pyridin-2-yl)ethyl)-piperidin-4-yl)benzoyl)piperidin-4-yl)methyl)piperazin-1-yl)-5-fluoropyridin-3-yl)amino)-piperidine-2,6-dione]",131 nM,–,70 to 80%

# Other lines, results leading:
EC50 [1],DC50 [2],Emax [2],SMILES
40.9 nM,–,70 to 80%,"COCc1nc2cc(-c3ccnc4c3cc([C@H](C)N3CCC(c5ccc(C(=O)N6CCC(CN7CCN(c8ncc(NC9CCC(=O)NC9=O)cc8F)CC7)CC6)cc5)CC3)n4C)ccc2[nH]1 (stereo partly drawn) [Example 2n12, 3-((5-fluoro-6-(4-((1-(4-(1-((S)-1-(4-(2-(methoxymethyl)-1H-benzo[d]imidazol-5-yl)-1-methyl-1H-pyrrolo[2,3-b]pyridin-2-yl)ethyl)piperidin-4-yl)benzoyl)piperidin-4-yl)methyl)piperazin-1-yl)pyridin-3-yl)amino)piperidine-2,6-dione]"
11.3 nM,2.7 nM,–,"Cn1c(CN2CCC(c3ccc(C(=O)N4CCn5nc(CN6CCC(c7ccc(NC8CCC(=O)NC8=O)cc7F)CC6)cc5C4)cc3)CC2)cc2c(-c3ccc4[nH]ncc4c3)ccnc21 (stereo not drawn) [Example 2q3, 3-((4-(1-((5-(4-(1-((4-(1H-indazol-5-yl)-1-methyl-1H-pyrrolo[2,3-b]pyridin-2-yl)methyl)-piperidin-4-yl)benzoyl)-4,5,6,7-tetrahydropyrazolo[1,5-a]pyrazin-2-yl)methyl)piperidin-4-yl)-3-fluorophenyl)amino)piperidine-2,6-dione]"
73.5 nM,–,70 to 80%,"Cn1c(CN2CCC(c3ccc(C(=O)N4CCn5nc(CN6CCC(c7ccc(NC8CCC(=O)NC8=O)cc7F)CC6)cc5C4)cc3)CC2)cc2c(-c3ccc(N)nc3)ccnc21 (stereo not drawn) [Example 2q4, 3-((4-(1-((5-(4-(1-((4-(6-aminopyridin-3-yl)-1-methyl-1H-pyrrolo[2,3-b]pyridin-2-yl)methyl)-piperidin-4-yl)benzoyl)-4,5,6,7-tetrahydropyrazolo[1,5-a]pyrazin-2-yl)methyl)piperidin-4-yl)-3-fluoro-phenyl)amino)piperidine-2,6-dione]"
2.3 nM,1 nM,–,"C[C@@H](c1cc2c(-c3ccc(N)nc3)ccnc2n1C)N1CCC(c2ccc(C(=O)N3CCn4nc(CN5CCC(c6ccc(NC7CCC(=O)NC7=O)cc6F)CC5)cc4C3)cc2)CC1 (stereo partly drawn) [Example 2q5, 3-((4-(1-((5-(4-(1-((S)-1-(4-(6-aminopyridin-3-yl)-1-methyl-1H-pyrrolo[2,3-b]pyridin-2-yl)ethyl)-piperidin-4-yl)benzoyl)-4,5,6,7-tetrahydropyrazolo[1,5-a]pyrazin-2-yl)methyl)piperidin-4-yl)-3-fluorophenyl)-amino)piperidine-2,6-dione]"
19.9 nM,5.6 nM,–,"C[C@@H](c1cc2c(-c3ccc(N)nc3)ccnc2n1C)N1CCC(c2ccc(C(=O)N3CCn4nc(CN5CCC(c6ncc(NC7CCC(=O)NC7=O)cc6F)CC5)cc4C3)cc2)CC1 (stereo partly drawn) [Example 2q6, 3-((6-(1-((5-(4-(1-((S)-1-(4-(6-aminopyridin-3-yl)-1-methyl-1H-pyrrolo[2,3-b]pyridin-2-yl)ethyl)-piperidin-4-yl)benzoyl)-4,5,6,7-tetrahydropyrazolo[1,5-a]pyrazin-2-yl)methyl)piperidin-4-yl)-5-fluoropyridin-3-yl)amino)piperidine-2,6-dione]"
